Assay [1] deals with Mitogen-activated protein kinase 8 (Homo sapiens) (UniProt P45983). Description: Inhibition of JNK1 (unknown origin) at 10 uM after 120 mins P33 radiolabeled kinase activity assay.
The target of assay [2] is T1, Tyrosine-protein kinase receptor TYRO3 (Homo sapiens) (UniProt Q06418).
T1 sequence (whole entry): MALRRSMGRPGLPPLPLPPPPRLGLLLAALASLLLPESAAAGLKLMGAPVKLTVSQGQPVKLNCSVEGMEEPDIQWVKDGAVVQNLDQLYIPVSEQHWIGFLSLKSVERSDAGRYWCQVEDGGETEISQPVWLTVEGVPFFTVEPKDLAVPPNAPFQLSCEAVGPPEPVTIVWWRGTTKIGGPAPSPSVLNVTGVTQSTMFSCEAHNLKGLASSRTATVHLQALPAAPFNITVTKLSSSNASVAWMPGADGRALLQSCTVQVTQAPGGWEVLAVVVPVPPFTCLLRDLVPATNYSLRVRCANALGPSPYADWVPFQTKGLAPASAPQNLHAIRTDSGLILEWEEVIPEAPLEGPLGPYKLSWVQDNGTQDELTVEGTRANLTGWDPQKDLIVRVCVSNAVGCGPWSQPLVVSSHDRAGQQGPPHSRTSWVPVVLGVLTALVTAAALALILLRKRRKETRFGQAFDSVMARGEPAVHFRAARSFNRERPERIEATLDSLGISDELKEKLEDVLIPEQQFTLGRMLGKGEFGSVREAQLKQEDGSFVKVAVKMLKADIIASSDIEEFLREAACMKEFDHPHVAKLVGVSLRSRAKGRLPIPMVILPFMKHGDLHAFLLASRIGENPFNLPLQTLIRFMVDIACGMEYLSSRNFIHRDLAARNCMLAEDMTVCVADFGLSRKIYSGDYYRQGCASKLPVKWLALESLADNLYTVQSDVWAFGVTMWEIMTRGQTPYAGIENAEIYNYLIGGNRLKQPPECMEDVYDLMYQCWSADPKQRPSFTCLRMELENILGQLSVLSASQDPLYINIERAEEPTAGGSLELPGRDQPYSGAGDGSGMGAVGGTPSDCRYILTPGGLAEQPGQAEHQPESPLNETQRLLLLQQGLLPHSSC
Put plainly: Inhibition of TYRO3 (unknown origin) at 10 uM after 120 mins P33 radiolabeled kinase activity assay.

For assay [3], the target named is T2, Serine/threonine-protein kinase A-Raf (Homo sapiens) (UniProt P10398).
T2 sequence (whole entry): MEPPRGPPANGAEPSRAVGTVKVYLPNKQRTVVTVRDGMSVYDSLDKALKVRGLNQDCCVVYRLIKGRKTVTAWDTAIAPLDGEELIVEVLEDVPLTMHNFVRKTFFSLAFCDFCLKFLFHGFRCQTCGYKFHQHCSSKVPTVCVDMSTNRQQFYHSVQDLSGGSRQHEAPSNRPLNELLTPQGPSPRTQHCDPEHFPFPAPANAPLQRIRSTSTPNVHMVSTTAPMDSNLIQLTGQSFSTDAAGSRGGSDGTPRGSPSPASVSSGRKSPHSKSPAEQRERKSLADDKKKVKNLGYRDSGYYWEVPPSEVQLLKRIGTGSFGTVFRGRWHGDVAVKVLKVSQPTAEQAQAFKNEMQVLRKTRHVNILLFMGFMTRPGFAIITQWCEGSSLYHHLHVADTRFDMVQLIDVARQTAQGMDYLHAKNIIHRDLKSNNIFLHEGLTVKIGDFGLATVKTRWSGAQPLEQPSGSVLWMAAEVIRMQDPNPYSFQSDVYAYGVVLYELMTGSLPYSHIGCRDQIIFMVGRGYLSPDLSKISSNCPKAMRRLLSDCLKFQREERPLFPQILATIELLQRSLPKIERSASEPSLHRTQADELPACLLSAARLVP
Description: Inhibition of ARAF (unknown origin) at 10 uM after 120 mins P33 radiolabeled kinase activity assay.

For assay [4], the target named is T3, Mitogen-activated protein kinase kinase kinase 5 (Homo sapiens) (UniProt Q99683).
T3 sequence (whole entry): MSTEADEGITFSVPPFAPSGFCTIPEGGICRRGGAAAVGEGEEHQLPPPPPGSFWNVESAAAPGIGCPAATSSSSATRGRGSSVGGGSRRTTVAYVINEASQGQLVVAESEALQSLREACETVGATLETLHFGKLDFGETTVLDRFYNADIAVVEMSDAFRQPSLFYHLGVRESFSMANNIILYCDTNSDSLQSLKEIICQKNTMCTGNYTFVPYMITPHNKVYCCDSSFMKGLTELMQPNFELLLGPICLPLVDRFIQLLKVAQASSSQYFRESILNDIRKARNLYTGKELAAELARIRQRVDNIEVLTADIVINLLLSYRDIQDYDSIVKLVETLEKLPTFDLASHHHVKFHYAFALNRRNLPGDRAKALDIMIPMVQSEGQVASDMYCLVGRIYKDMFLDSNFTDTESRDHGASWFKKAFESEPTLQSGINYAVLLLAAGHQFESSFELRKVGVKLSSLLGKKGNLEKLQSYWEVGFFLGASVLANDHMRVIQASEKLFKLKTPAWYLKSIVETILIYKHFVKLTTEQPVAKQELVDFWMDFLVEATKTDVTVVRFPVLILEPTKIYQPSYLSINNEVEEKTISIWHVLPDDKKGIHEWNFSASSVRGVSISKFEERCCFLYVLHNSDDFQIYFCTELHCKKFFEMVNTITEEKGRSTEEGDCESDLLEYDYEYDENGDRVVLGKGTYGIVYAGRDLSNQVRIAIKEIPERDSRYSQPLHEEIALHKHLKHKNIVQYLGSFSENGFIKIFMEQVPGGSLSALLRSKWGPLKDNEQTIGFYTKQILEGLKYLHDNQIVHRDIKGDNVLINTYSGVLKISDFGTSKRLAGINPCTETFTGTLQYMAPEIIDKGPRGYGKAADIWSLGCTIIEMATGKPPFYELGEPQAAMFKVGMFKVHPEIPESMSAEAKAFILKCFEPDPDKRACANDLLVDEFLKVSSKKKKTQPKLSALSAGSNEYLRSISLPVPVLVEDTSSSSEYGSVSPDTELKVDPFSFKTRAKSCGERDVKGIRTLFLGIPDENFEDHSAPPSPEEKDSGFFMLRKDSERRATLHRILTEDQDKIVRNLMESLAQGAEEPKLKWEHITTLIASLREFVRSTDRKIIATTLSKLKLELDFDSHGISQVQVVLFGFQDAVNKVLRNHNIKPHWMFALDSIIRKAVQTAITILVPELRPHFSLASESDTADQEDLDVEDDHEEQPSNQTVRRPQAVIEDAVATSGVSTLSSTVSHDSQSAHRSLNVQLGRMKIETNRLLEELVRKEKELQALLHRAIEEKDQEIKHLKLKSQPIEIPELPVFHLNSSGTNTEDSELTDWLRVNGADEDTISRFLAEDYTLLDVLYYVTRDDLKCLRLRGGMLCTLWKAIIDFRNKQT
Description: Inhibition of ASK1 (unknown origin) at 10 uM after 120 mins P33 radiolabeled kinase activity assay.

This is an account of results in ChEMBL document CHEMBL3627608, “Crystal structures of human RIP2 kinase catalytic domain complexed with ATP-competitive inhibitors: Foundations for understanding inhibitor selectivity” (Bioorg Med Chem, 2015).

Mitogen-activated protein kinase 8 (Homo sapiens), sequence (P45983 whole entry): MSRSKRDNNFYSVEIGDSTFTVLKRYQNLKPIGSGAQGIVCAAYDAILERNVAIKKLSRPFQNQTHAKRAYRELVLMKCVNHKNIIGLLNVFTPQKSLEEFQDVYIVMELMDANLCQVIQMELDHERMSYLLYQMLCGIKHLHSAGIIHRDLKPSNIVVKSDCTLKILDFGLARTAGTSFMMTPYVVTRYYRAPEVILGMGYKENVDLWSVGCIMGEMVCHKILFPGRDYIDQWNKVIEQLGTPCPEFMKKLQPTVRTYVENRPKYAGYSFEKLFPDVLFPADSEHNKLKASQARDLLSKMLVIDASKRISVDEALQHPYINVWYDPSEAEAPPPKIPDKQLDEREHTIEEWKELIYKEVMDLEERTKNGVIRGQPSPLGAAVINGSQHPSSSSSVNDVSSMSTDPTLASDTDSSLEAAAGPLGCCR

Regarding `COCCNC(=O)c1ccc2c(c1)nc(-c1cnc(-c3ccc(Cl)cc3)[nH]1)n2CCOC`, the inhibition is 2.55% in assay [1], 12.8% in assay [2], 75.8% in assay [3] and 19.7% in assay [4].
The like results for `CC(C)(C)c1cc(NC(=O)Nc2ccc(Oc3ccncc3)cc2)no1` were, in that order, 14.2%, 60.7%, 96.2% and 19.8%.
The like results for `CS(=O)(=O)c1cccc(Nc2nccc(-c3sc(N4CCOCC4)nc3-c3cccc(NS(=O)(=O)c4c(F)cccc4F)c3)n2)c1` were, in that order, 31.4%, 79.5%, 97.7% and 9.88%.

By inhibition is commonly meant the relative decrease from the control value, in per cent.
